Results reported in publication PMC6001238, “Iterative Chemical Engineering of Vancomycin Leads to Novel Vancomycin Analogs With a High in Vitro Therapeutic Index” (Frontiers in Microbiology, 2018).
In brackets after ≈: the same amount, converted by molar mass. Where two headings read alike, the source gives them in different places.

Assays:
[1] = system: Murine leukemia (L1210) cells; experiment: Cytostatic activity, L1210 cell proliferation; type: cell-based; settings: mean ± SD of three experiments; highest concentration tested 250 µM; 2 days; read-out: Toxicity (IC50) L1210
Summary of the method: (§1)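 Coulter counter cell counts after 37°C culture with compound; IC50 = concentration giving 50% growth inhibition vs negative control. Incubation: L1210 2 d, CEM 3 d, HeLa 4 d. Suspension density before mixing with an equal volume of dilution: 300,000–500,000 cells/mL.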

MRSA KS1 = experiment: MIC, broth microdilution, MRSA KS1; type: cell-based, Staphylococcus aureus; settings: for MIC-fold improvement vs. vancomycin: MRSA KS1, ratio of MIC of vancomycin and MIC of analogue; for MIC: Staphylococcus aureus MRSA KS1, read-out: MIC
Summary of the method: (§2)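 MIC values come from broth microdilution run to CLSI susceptibility-testing standards. Ultrapure water and uninoculated broth served as controls. In one series, vancomycin at a final 10 μM was co-dosed with the analogue or comparator antibiotic.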

E. faecalis VRE 37 = experiment: MIC, broth microdilution, vancomycin-resistant E. faecalis VRE 37 (VanA); type: cell-based, Enterococcus faecalis; settings: for MIC: Enterococcus faecalis VRE 37 (vancomycin-resistant), read-out: MIC; for MIC-fold improvement vs. vancomycin: VRE 37, ratio of MIC of vancomycin and MIC of analogue
Summary of the method: as §2

S. aureus VRSA = experiment: MIC, broth microdilution, vancomycin-resistant S. aureus (VRSA); type: cell-based, Staphylococcus aureus; settings: for MIC: Staphylococcus aureus VRSA, read-out: MIC; for MIC-fold improvement vs. vancomycin: VRSA, ratio of MIC of vancomycin and MIC of analogue
Summary of the method: as §2

[2] = system: S. aureus VSSA (ATCC 6538); experiment: MIC, broth microdilution, vancomycin-sensitive S. aureus (VSSA/MSSA, ATCC 6538); type: cell-based, Staphylococcus aureus; settings: for MIC: Staphylococcus aureus VSSA, read-out: MIC; for MIC-fold improvement vs. vancomycin: VSSA, ratio of MIC of vancomycin and MIC of analogue
Summary of the method: as §2

[3] = system: human T-lymphocyte (CEM) cells; experiment: Cytostatic activity, CEM cell proliferation; type: cell-based; settings: mean ± SD of three experiments; highest concentration tested 250 µM; 3 days; read-out: Toxicity (IC50) CEM
Summary of the method: as §1

E. faecalis VRE 53 = experiment: MIC, broth microdilution, vancomycin-resistant E. faecalis VRE 53 (VanA); type: cell-based, Enterococcus faecalis; settings: for MIC: Enterococcus faecalis VRE 53 (vancomycin-resistant), read-out: MIC; for MIC-fold improvement vs. vancomycin: VRE 53, ratio of MIC of vancomycin and MIC of analogue
Summary of the method: as §2

E. faecalis VSE 1 = experiment: MIC, broth microdilution, vancomycin-sensitive E. faecalis (VSE 1); type: cell-based, Enterococcus faecalis; settings: for MIC: Enterococcus faecalis VSE 1 (vancomycin-sensitive), read-out: MIC; for MIC-fold improvement vs. vancomycin: VSE 1, ratio of MIC of vancomycin and MIC of analogue
Summary of the method: as §2

E. faecalis VRE 29 = experiment: MIC, broth microdilution, vancomycin-resistant E. faecalis VRE 29 (VanA); type: cell-based, Enterococcus faecalis; settings: for MIC: Enterococcus faecalis VRE 29 (vancomycin-resistant), read-out: MIC; for MIC-fold improvement vs. vancomycin: VRE 29, ratio of MIC of vancomycin and MIC of analogue
Summary of the method: as §2

[4] = system: L1210, CEM and HeLa cell lines; experiment: Cytostatic activity, average or summary over L1210, CEM and HeLa; type: cell-based; settings: average of L1210, CEM and HeLa; read-out: Toxicity (IC50) Average
Summary of the method: as §1

MRSA KS2 = experiment: MIC, broth microdilution, MRSA KS2; type: cell-based, Staphylococcus aureus; settings: for MIC-fold improvement vs. vancomycin: MRSA KS2, ratio of MIC of vancomycin and MIC of analogue; for MIC: Staphylococcus aureus MRSA KS2, read-out: MIC
Summary of the method: as §2

E. faecalis VRE 6 = experiment: MIC, broth microdilution, vancomycin-resistant E. faecalis VRE 6 (VanA); type: cell-based, Enterococcus faecalis; settings: for MIC: Enterococcus faecalis VRE 6 (vancomycin-resistant), read-out: MIC; for MIC-fold improvement vs. vancomycin: VRE 6, ratio of MIC of vancomycin and MIC of analogue
Summary of the method: as §2

MRSA KS89 = experiment: MIC, broth microdilution, MRSA KS89; type: cell-based, Staphylococcus aureus; settings: for MIC-fold improvement vs. vancomycin: ratio of MIC of vancomycin and MIC of analogue; for MIC: read-out: MIC
Summary of the method: as §2

MRSA KS6 = experiment: MIC, broth microdilution, MRSA KS6; type: cell-based, Staphylococcus aureus; settings: for MIC-fold improvement vs. vancomycin: MRSA KS6, ratio of MIC of vancomycin and MIC of analogue; for MIC: Staphylococcus aureus MRSA KS6, read-out: MIC
Summary of the method: as §2

[5] = system: human cervix carcinoma (HeLa) cells; experiment: Cytostatic activity, HeLa cell proliferation; type: cell-based; settings: mean ± SD of three experiments; highest concentration tested 250 µM; 4 days; read-out: Toxicity (IC50) HeLa
Summary of the method: as §1

S. aureus VISA/HIP5827 = experiment: MIC, broth microdilution, vancomycin-intermediate S. aureus VISA HIP5827; type: cell-based, Staphylococcus aureus; settings: for MIC: Staphylococcus aureus VISA/HIP5827, read-out: MIC; for MIC-fold improvement vs. vancomycin: VISA/HIP5827, ratio of MIC of vancomycin and MIC of analogue
Summary of the method: as §2

SMILES	IC50 [1] [µM]	MIC-fold improvement vs. vancomycin (MRSA KS1)	MIC (MRSA KS1) [µM]	MIC (E. faecalis VRE 37) [µM]	MIC (S. aureus VRSA) [µM]	MIC-fold improvement vs. vancomycin (S. aureus VRSA)	MIC [2] [µM]	MIC-fold improvement vs. vancomycin [2]	IC50 [3] [µM]	MIC (E. faecalis VRE 53) [µM]	MIC-fold improvement vs. vancomycin (E. faecalis VRE 53)	MIC (E. faecalis VSE 1) [µM]	MIC-fold improvement vs. vancomycin (E. faecalis VSE 1)	MIC (E. faecalis VRE 29) [µM]	MIC-fold improvement vs. vancomycin (E. faecalis VRE 29)	IC50 [4] [µM]	MIC-fold improvement vs. vancomycin (MRSA KS2)	MIC (MRSA KS2) [µM]	MIC (E. faecalis VRE 6) [µM]	MIC-fold improvement vs. vancomycin (E. faecalis VRE 6)	further results
CCCCCCCc1ccc(C(=O)NCCCNC(=O)C2NC(=O)C3NC(=O)C(NC(=O)C4NC(=O)C(CC(N)=O)NC(=O)C(NC(=O)C(CC(C)C)NC)C(O)c5ccc(c(Cl)c5)Oc5cc4cc(c5OC4OC(CO)C(O)C(O)C4OC4CC(C)(N)C(O)C(C)O4)Oc4ccc(cc4Cl)C3O)c3ccc(O)c(c3)-c3c(O)cc(O)cc32)cc1 (centres unmarked) [Vanc-31]	8.8 ± 0.6	1	0.78 (≈ 1.33 µg/mL)	1.56 (≈ 2.66 µg/mL)	0.78 (≈ 1.33 µg/mL)	128	0.20 (≈ 0.342 µg/mL)	4	17 ± 5	3.13 (≈ 5.35 µg/mL)	128	0.39 (≈ 0.666 µg/mL)	4	1.56 (≈ 2.66 µg/mL)	256	37	4	0.20 (≈ 0.342 µg/mL)	0.39 (≈ 0.666 µg/mL)	513	MIC-fold improvement vs. vancomycin (E. faecalis VRE 37): 256; MIC-fold improvement vs. vancomycin (MRSA KS89; MRSA KS8): 4; MIC (MRSA KS89; Staphylococcus aureus MRSA KS8): 0.20 µM (≈ 0.342 µg/mL); MIC-fold improvement vs. vancomycin (MRSA KS6): 4; MIC (MRSA KS6): 0.20 µM (≈ 0.342 µg/mL); IC50 [5]: 86 ± 14 µM; MIC (S. aureus VISA/HIP5827): 0.05 µM (≈ 0.0854 µg/mL); MIC-fold improvement vs. vancomycin (S. aureus VISA/HIP5827): 128
CCCCCCn1cc(-c2ccc(NC(=O)CNC(=O)C3NC(=O)C4NC(=O)C(NC(=O)C5NC(=O)C(CC(N)=O)NC(=O)C(NC(=O)C(CC(C)C)NC)C(O)c6ccc(c(Cl)c6)Oc6cc5cc(c6OC5OC(CO)C(O)C(O)C5OC5CC(C)(N)C(O)C(C)O5)Oc5ccc(cc5Cl)C4O)c4ccc(O)c(c4)-c4c(O)cc(O)cc43)cc2)nn1 (centres unmarked) [Vanc-92]	95 ± 75	4	0.20 (≈ 0.347 µg/mL)	6.25 (≈ 10.8 µg/mL)	0.78 (≈ 1.35 µg/mL)	128	0.20 (≈ 0.347 µg/mL)	4	31 ± 7	25 (≈ 43.3 µg/mL)	16	0.10 (≈ 0.173 µg/mL)	16	6.25 (≈ 10.8 µg/mL)	64	75	4	0.20 (≈ 0.347 µg/mL)	6.25 (≈ 10.8 µg/mL)	32	MIC-fold improvement vs. vancomycin (E. faecalis VRE 37): 64; MIC-fold improvement vs. vancomycin (MRSA KS89; MRSA KS8 (head; KS89 in title)): 4; MIC (MRSA KS89; Staphylococcus aureus MRSA KS8 (head; KS89 in title)): 0.20 µM (≈ 0.347 µg/mL); MIC-fold improvement vs. vancomycin (MRSA KS6): 4; MIC (MRSA KS6): 0.20 µM (≈ 0.347 µg/mL); IC50 [5]: 98 ± 12 µM; MIC (S. aureus VISA/HIP5827): 0.78 µM (≈ 1.35 µg/mL); MIC-fold improvement vs. vancomycin (S. aureus VISA/HIP5827): 8
CN[C@H](CC(C)C)C(=O)N[C@H]1C(=O)N[C@@H](CC(N)=O)C(=O)N[C@H]2C(=O)N[C@H]3C(=O)N[C@H](C(=O)N[C@H](C(=O)NCC(=O)Nc4ccc(C(F)(F)F)cc4)c4cc(O)cc(O)c4-c4cc3ccc4O)[C@H](O)c3ccc(c(Cl)c3)Oc3cc2cc(c3O[C@@H]2O[C@H](CO)[C@@H](O)[C@H](O)[C@H]2O[C@H]2C[C@](C)(N)[C@H](O)[C@H](C)O2)Oc2ccc(cc2Cl)[C@H]1O [Vanc-40]	> 250	2	0.39 (≈ 0.643 µg/mL)	12.5 (≈ 20.6 µg/mL)	3.13 (≈ 5.16 µg/mL)	32	0.78 (≈ 1.29 µg/mL)	1	> 250	25 (≈ 41.2 µg/mL)	16	0.78 (≈ 1.29 µg/mL)	2	12.5 (≈ 20.6 µg/mL)	32	> 250	2	0.39 (≈ 0.643 µg/mL)	6.25 (≈ 10.3 µg/mL)	32	MIC-fold improvement vs. vancomycin (MRSA KS89; MRSA KS8): 2; MIC (MRSA KS89; Staphylococcus aureus MRSA KS8): 0.39 µM (≈ 0.643 µg/mL); MIC-fold improvement vs. vancomycin (MRSA KS6): 2; MIC (MRSA KS6): 0.39 µM (≈ 0.643 µg/mL); IC50 [5]: > 250 µM; MIC (S. aureus VISA/HIP5827): 1.56 µM (≈ 2.57 µg/mL); MIC-fold improvement vs. vancomycin (S. aureus VISA/HIP5827): 4
